Source: patent US20210284691A1, “CBX8 CHROMDOMAIN INHIBITORS AND THE USES THEREOF” (Purdue Research Foundation, priority 2019, published 2021)
Square brackets hold non-standard residues; d marks the D form. Peptide text beside a SMILES is read from it. * marks the point of attachment. Tyr(3-Cl) = N[C@@H](Cc1ccc(O)c(Cl)c1)C(=O)O; Benzoyl(3,5-Cl2) = O=C(c1cc(Cl)cc(Cl)c1)*; Lys(Et2) = CCN(CC)CCCC[C@H](N)C(=O)O; Gly(cPent) = N[C@H](C(=O)O)C1CCCC1; NH(propargyl) = C#CCN*

Experiments:
Assay type in all cases: cell-based
[1] = tested on: KLK3/TMPRSS2/AR/CBX2 expression; assay: Transcriptional fold change in LNCaP_NED cells; details: 10 μM or 50 μM, 48 hours
From the text: (§1) FIG. 12A). Neuroendocrine differentiation (NED) of prostate cancer induced by androgen deprivation. Representative pictures of LNCaP cells treated with normal media or charcoal-stripped serum (CSS) media for 6 days to induce neuroendocrine differentiation (LNCaP_NED). FIG. 12B). Transcriptional fold changes of KLK3/TMPRSS2/ENO2/CHGA were quantified normalized to control gene YWHAZ upon CSS media treatment for 6 or 9 days. FIG. 12C). Western blotting of CBX paralogs in LNCaP and LNCaP_NED cells generated from 14-day CSS treatment. FIG. 12D). Cell proliferation of LNCaP_NED following 5 days incubation with 2 or 10 μM SW2_152F. DMSO was used as negative control. FIG. 12E). LNCaP_NED cells were treated with 10 μM SW2_152F for 24 h-96 h. Cell morphology pictures were captured starting from 24 h. Average cell size were plotted at 24 h or 48 h for both DMSO group and compound treated group. FIG. 12F). LNCaP_NED cells were treated with 10 μM or 50 μM SW2_152F for 48 hours. […] Binding of H3K27me3 and CBX2 at specific genomic sites (KLK3/TMPRSS2, e: enhancer, p: promoter) were evaluated using chromatin immunoprecipitation-qPCR. For all experiments in the figure, error bars represent SEM n=3 biological replicates, p-values were calculated using two-tailed Student's t-test, *=p<0.05, **=p<0.01, ***=p<0.001, ****=p<0.0001. […]

[2] = target: T1, CBX2 bulk chromatin binding (Homo sapiens, UniProt Q14781); assay: Sequential salt extraction (SSE) in HEK293T cells; details: 10 μM
T1 construct: endogenous in cells; host or cells: HEK293T (A21); K562 (A22)

[3] = target: T2, CBX2 and H3K27me3 at KLK3/TMPRSS2 enhancers and promoters (Homo sapiens, UniProt Q14781); assay: ChIP-qPCR in LNCaP_NED cells; details: 10 μM, 4 hours
T2 construct: endogenous in cells
From the text: as §1

[4] = tested on: RWPE-1 cells, HEK293T cells; assay: Viability of non-transformed / control cells
[5] = target: T3, CBX8 binding to chromatin (Homo sapiens, UniProt Q9HC52); assay: ChIP-qPCR in K562 cells
T3 construct: endogenous in cells; host or cells: Hs68 fibroblasts (A16); HEK293T (A19); K562 (A23)
T3 sequence (Q9HC52 1-389): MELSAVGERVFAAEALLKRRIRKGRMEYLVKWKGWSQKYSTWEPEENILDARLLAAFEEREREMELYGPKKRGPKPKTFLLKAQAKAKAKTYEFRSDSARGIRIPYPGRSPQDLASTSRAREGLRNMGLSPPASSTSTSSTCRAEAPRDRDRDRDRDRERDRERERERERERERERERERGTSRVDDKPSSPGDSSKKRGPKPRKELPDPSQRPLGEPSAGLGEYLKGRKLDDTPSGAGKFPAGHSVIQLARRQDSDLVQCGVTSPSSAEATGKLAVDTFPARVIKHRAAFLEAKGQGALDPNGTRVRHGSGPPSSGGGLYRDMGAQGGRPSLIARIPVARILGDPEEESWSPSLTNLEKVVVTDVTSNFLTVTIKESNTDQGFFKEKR
Protocol: FIGS. 11A-11E: Cellular Activity of CBX2 ChD Ligand. FIG. 11A) Relative cytosolic access of SW2_152F conjugated to a chloroalkane (SW2_152F-CA, SEQ ID NO: 28) was evaluated using chloroalkane penetration assay (CAPA). The half maximal cell penetration value (CP50) of SW2_152F-CA was determined for SW2_152F-CA and CBX8 inhibitor SW2_110A-CA. FIG. 11B) Chemoprecipitations from HEK293T nuclear lysates using biotinylated SW2_152F (SW2_152F-B, SEQ ID NO: 29) were analyzed using immunoblot analysis. FIG. 11C) Analysis and quantification of SW2_152F in abrogating bulk binding of endogenous CBX proteins to chromatin in HEK293T cells by Sequential Salt Extraction. FIG. 11D). Chromatin immunoprecipitation (ChIP) from K562 cells using antibodies against IgG, H3K27me3, CBX2 and CBX8 was followed by quantitative PCR of genomic regions near Tm9SF4 (negative locus), TCF21, Fyn-2, and PAX7. Cells were treated with 10 μM SW2_152F for 4 h prior to harvest. FIG. 11E) Chromatin immunoprecipitation (ChIP) in Hs68 fibroblast cells using antibodies against IgG, CBX7, and CBX8 followed by quantitative PCR of genomic regions at LMNB2 (negative locus), CCND2, and RUNX3. Cells were treated with 100 μM SW2_152F for 4 h prior to harvest. For all qPCR, error bars represent SEM n=3 biological replicates, p-values were calculated using two-tailed Student's t-test, * p<0.05, **=p<0.01, ***=p<0.001, ****=p<0.0001.
ChIP-qPCR. After validating selectivity using lysate and bulk chromatin, we wanted to determine whether the inhibitor can disrupt CBX2 binding to chromatin in live cells. We used chromatin immunoprecipitation (ChIP) followed by quantitative PCR (ChIP-qPCR) of sites with CBX2, CBX8 and H3K27me3 enrichment in K562 ChIP-Seq datasets in ENCODE (M. Azkanaz, et al., Elife 2019). We evaluated effects of compound treatment at both 10 μM and 100 μM SW2_152F. […] In order to evaluate SW2_152F activity against a paralog with no binding to SW2_152F in vitro, CBX7 ChIP-qPCR was performed in Hs68 fibroblast cells, which have no detectable CBX2 expression (H. Pemberton, et al., Genome Biol. 2014).

T2 sequence (Q14781 whole entry): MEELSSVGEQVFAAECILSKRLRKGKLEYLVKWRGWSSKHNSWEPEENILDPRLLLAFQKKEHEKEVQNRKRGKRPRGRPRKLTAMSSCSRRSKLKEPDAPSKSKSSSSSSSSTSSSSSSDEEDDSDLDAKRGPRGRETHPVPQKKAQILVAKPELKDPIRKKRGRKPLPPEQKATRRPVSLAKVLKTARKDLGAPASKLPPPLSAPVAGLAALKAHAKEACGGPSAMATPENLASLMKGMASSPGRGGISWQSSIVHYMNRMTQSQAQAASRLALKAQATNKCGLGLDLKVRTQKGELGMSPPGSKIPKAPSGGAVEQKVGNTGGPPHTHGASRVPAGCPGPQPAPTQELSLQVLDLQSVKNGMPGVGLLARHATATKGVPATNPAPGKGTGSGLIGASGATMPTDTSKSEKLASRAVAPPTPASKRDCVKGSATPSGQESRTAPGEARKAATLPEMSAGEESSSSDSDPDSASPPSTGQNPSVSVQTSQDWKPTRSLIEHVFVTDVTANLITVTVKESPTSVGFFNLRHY
T1 sequence (Q14781 whole entry): as above

For `C#CCNC(=O)[C@H](CO)NC(=O)[C@H](CCCCN(CC)CC)NC(=O)[C@@H](NC(=O)[C@@H](NC(=O)[C@H](Cc1ccc(O)c(Cl)c1)NC(=O)c1cc(Cl)cc(Cl)c1)C1CCCC1)[C@@H](C)CC` [SW2_152F] ({Benzoyl(3,5-Cl2)}-[Tyr(3-Cl)][Gly(cPent)]I[Lys(Et2)]S-{NH(propargyl)}), the CBX2 expression [1] was “remained unchanged”, the “expression of AR and AR-target genes (TMPRSS2 and KLK3)” value [1] was “significantly increased” and the “CBX2 binding to chromatin, SSE” value [2] was “dramatically abrogated CBX2 binding to chromatin”. For the same molecule, the “CBX2 binding at AR target genes, ChIP-qPCR” value [3] was “abrogates CBX2 binding at the KLK3 (PSA)/TMPRSS2 enhancers and promoters”, the “H3K27me3 enrichment at AR target genes, ChIP-qPCR” value [3] was “reduces H3K27me3 enrichment specifically at these sites” and the “viability of RWPE-1 cells or HEK293T cells” value [4] was “did not affect the viability”. For the same molecule, the “CBX8 binding, ChIP-qPCR” value ([5]; 10 μM, 4 h) was “not CBX8 binding” and the “CBX8 binding, ChIP-qPCR” value ([5]; 100 μM) was “significant reduction of both CBX2 and CBX8 binding”.
